From the Deep4Chem optical property database
Values belong to the compound of their own block, whether it stands above or below them.

Assay: photoluminescence quantum yield (fraction); solvent given as SMILES
[1] = in O=P(c1ccccc1)(c1ccccc1)c1ccccc1Oc1ccccc1P(=O)(c1ccccc1)c1ccccc1

SMILES: CNc1cccc2c1C(=O)c1ccccc1C2=O
photoluminescence quantum yield (in C1CCC2CCCCC2C1): 0.014
photoluminescence quantum yield (in C1CCCCC1): 0.0135
photoluminescence quantum yield (in CC1CCCCC1): 0.0138
photoluminescence quantum yield (in CC#N): 0.0026
photoluminescence quantum yield (in CCC(C)CC): 0.0136
photoluminescence quantum yield (in CCCCCC): 0.0136
photoluminescence quantum yield (in CCOC(C)=O): 0.0048

photoluminescence quantum yield (in ClCCl): 0.55
SMILES: COCCOCCOCCOCC(COCCOCCOCCOC)Oc1cc(/C=C/c2ccc(/C=C(\C#N)c3ccc(C(F)(F)F)cc3)cc2)c(OC(COCCOCCOCCOC)COCCOCCOCCOC)cc1/C=C/c1ccc(/C=C(\C#N)c2ccc(C(F)(F)F)cc2)cc1

photoluminescence quantum yield (in ClCCl): 0.41
SMILES: O=c1c2cc(C#Cc3ccccc3)ccc2nc2ccc(C#Cc3ccccc3)cn12

photoluminescence quantum yield (in CC#N): 0.36
photoluminescence quantum yield (in CCCCCC): 0.289
photoluminescence quantum yield (in CO): 0.328
photoluminescence quantum yield (in ClC(Cl)Cl): 0.166
SMILES: c1ccc2cc(-c3cc(-c4nccs4)nc(-c4nccs4)c3)ccc2c1

photoluminescence quantum yield (in C1CCOC1): 0.287
SMILES: O=c1oc2cccc3c4cccc5ccc6c7ccccc7c1c(c23)c6c54

SMILES: c1ccc(-c2nc(-c3ccccc3)nc(-c3ccccc3-n3c4ccccc4c4c5oc6ccccc6c5ccc43)n2)cc1
photoluminescence quantum yield [1]: 0.979

photoluminescence quantum yield (in C1CCCCC1): 0.98
photoluminescence quantum yield (in CCOC(C)=O): 0.11
SMILES: CC1=[N+]2C(=Cc3ccc(C)n3[B-]2(F)F)C=C1c1cc2n(c1)[B-](F)(F)[N+]1=CC=CC1=C2c1c(C)cc(C)cc1C

photoluminescence quantum yield (in CC#N): 0.6
SMILES: C[n+]1cc2ccc3c[n+](C)cc4ccc(c1)c2c34

SMILES: COCCC1=Cc2nc1ccc1[nH]c(cc1CCOC)c1nc(c(O)cc3[nH]c2cc3CCOC)C(CCOC)=C1
photoluminescence quantum yield (in Cc1ccccc1): 0.18

photoluminescence quantum yield (in C1CCOC1): 0.76
SMILES: F[Si-](F)(c1ccccc1)(c1ccccc1)c1c2ccccc2cc2ccccc12

SMILES: CC1(C)c2ccccc2N(c2ccc(-c3cccc(C#N)c3)cc2)c2ccccc21
photoluminescence quantum yield (in Cc1ccccc1): 0.112
photoluminescence quantum yield (in N#Cc1ccc2c(c1)c1ccccc1n2-c1cccc(-n2c3ccccc3c3ccccc32)c1): 0.15

photoluminescence quantum yield (in ClCCl): 0.007
SMILES: CC(C)(C)OC(=O)CN1CCN(c2ccc3c(-c4ccc(I)cc4)c4ccc(=[N+]5CCN(CC(=O)OC(C)(C)C)CC5)cc-4oc3c2)CC1

photoluminescence quantum yield (in ClC(Cl)Cl): 0.01
SMILES: CCCCC1(c2ccccc2)Nc2c(-c3ccc(N(C)c4ccccc4)cc3)ccc(-c3ccc(N(C)c4ccccc4)cc3)c2N=C1c1ccccc1 (stereo unspecified)

photoluminescence quantum yield (in CC#N): 0.053
SMILES: Oc1ccccc1/C=N/CC/N=C/c1ccccc1O

photoluminescence quantum yield (in ClCCl): 0.13
SMILES: COc1ccc(C2=C3C=C(/C=C/C(=O)OC(C)(C)C)C=[N+]3[B-](F)(F)n3cccc32)cc1

photoluminescence quantum yield (in ClC(Cl)Cl): 0.72
SMILES: Cc1c2c(c(C)c3ccccc13)-c1cc3nc4ccccc4nc3cc1-2

SMILES: Cc1cccc(C)c1
photoluminescence quantum yield (in C1CCCCC1): 0.25

SMILES: Fc1c(F)c(-n2c3ccccc3c3ccccc32)c(F)c(F)c1/C=C/C(=C(c1ccccc1)c1ccccc1)c1ccccc1
photoluminescence quantum yield (in Cc1ccccc1): 0.001

SMILES: CC(=O)c1c2c(cc3ccc(N(C)C)cc13)CCC2
photoluminescence quantum yield (in C1CCCCC1): 0.45
photoluminescence quantum yield (in C1CCOC1): 0.75
photoluminescence quantum yield (in C1COCCO1): 0.46
photoluminescence quantum yield (in CC#N): 0.99
photoluminescence quantum yield (in CCO): 0.05
photoluminescence quantum yield (in CS(C)=O): 0.85
photoluminescence quantum yield (in Cc1ccccc1): 0.62
photoluminescence quantum yield (in ClC(Cl)Cl): 0.77
photoluminescence quantum yield (in ClCCl): 0.99

photoluminescence quantum yield (in C1CCCCC1): 0.17
photoluminescence quantum yield (in CC#N): 0.002
photoluminescence quantum yield (in CO): 0.002
photoluminescence quantum yield (in ClC(Cl)Cl): 0.16
SMILES: CN(C)c1ccc(/C=C/c2ccc(-c3nc(C#N)c(C#N)n3C)cc2)cc1

photoluminescence quantum yield (in ClCCl): 0.182
SMILES: C(S/C=C/c1ccc(-c2ccc(/C=C/SC=C3CCCC3)cc2)cc1)=C1CCCC1

photoluminescence quantum yield (in CN(C)C=O): 0.7
photoluminescence quantum yield (in ClC(Cl)Cl): 0.8
SMILES: CCCCCCCCCCCCOc1cc2c(cc1OCCCCCCCCCCCC)C1=C3C(=O)N4C=Cc5cc(OCCCCCCCCCCCC)c(OCCCCCCCCCCCC)cc5C4=C3C(=O)N1C=C2

photoluminescence quantum yield (in ClC(Cl)Cl): 0.9
SMILES: CCN(CC)c1ccc2cc(-c3cn4cc(OC)ccc4n3)c(=O)oc2c1

photoluminescence quantum yield (in CC#N): 0.99
SMILES: C=Cc1cc2ccc(OC)cc2oc1=O

photoluminescence quantum yield (in C1CCCCC1): 0.12
SMILES: CCn1c2ccccc2c2ccc(C#N)cc21

photoluminescence quantum yield (in c1ccccc1): 0.034
SMILES: CCOC(=O)CSc1nc(C)c(CC)c(C#N)c1C#N

photoluminescence quantum yield (in C1CCCCC1): 0.8
photoluminescence quantum yield (in CC#N): 0.66
photoluminescence quantum yield (in CO): 0.1
photoluminescence quantum yield (in ClC(Cl)Cl): 0.85
SMILES: CN(C)c1ccc2nc(-c3ccc(C=O)cc3)sc2c1

photoluminescence quantum yield (in ClCCl): 0.2
SMILES: O=[N+]([O-])c1ccc(O)c(-c2nc3c(c4c2-c2ccccc2CC4)-c2ccccc2CC3)c1

photoluminescence quantum yield (in C1CCOC1): 0.6
photoluminescence quantum yield (in ClCCl): 0.82
SMILES: CC1=C(C#Cc2ccccc2)C(C)=[N+]2C1=C(c1ccccc1)c1c(C)c(C#Cc3ccccc3)c(C)n1[B-]2(F)F

photoluminescence quantum yield (in CC#N): 0.85
photoluminescence quantum yield (in CCO): 0.95
photoluminescence quantum yield (in CN(C)C=O): 0.74
photoluminescence quantum yield (in O): 0.94
SMILES: CCN(CC)c1ccc2cc3ccc(=[N+](CC)CC)cc-3oc2c1

SMILES: O=Cc1nc2ccc(C#Cc3ccc(N(c4ccccc4)c4ccccc4)cc3)cc2s1
photoluminescence quantum yield (in Cc1ccccc1): 0.57

SMILES: c1ccc([B-]2(c3ccccc3)Oc3ccc4ccccc4c3-c3c4ccccc4cn[n+]32)cc1
photoluminescence quantum yield (in Cc1ccccc1): 0.15

SMILES: c1ccc(-c2nnc(-c3ccc(N4c5ccccc5N(c5ccccc5)c5ccccc54)cc3)n2-c2ccccc2)cc1
photoluminescence quantum yield (in Cc1ccccc1): 0.07
photoluminescence quantum yield (in c1cc(-n2c3ccccc3c3ccccc32)cc(-n2c3ccccc3c3ccccc32)c1): 0.42

photoluminescence quantum yield (in CC#N): 0.49
photoluminescence quantum yield (in CO): 0.32
photoluminescence quantum yield (in ClCCl): 0.61
SMILES: O=C1c2ccccc2-c2c(-c3cc(Br)ccc3O)[nH]c(=O)n21

photoluminescence quantum yield (in CCO): 0.19
SMILES: c1ccc(C2c3ccccc3-c3ccccc32)cc1

photoluminescence quantum yield (in C1CCOC1): 0.96
SMILES: F[B-]1(F)n2c(c(-c3ccccc3)c(-c3ccccc3)c2-c2ccccc2)C=C2C(c3ccccc3)=C(c3ccccc3)C(c3ccccc3)=[N+]21

SMILES: CN(C)c1ccc(C(=O)Nc2ccc(Cl)cc2)cc1
photoluminescence quantum yield (in C1CCCCC1): 0.0011
photoluminescence quantum yield (in C1CCOC1): 0.0101
photoluminescence quantum yield (in CC#N): 0.0171
photoluminescence quantum yield (in CCOCC): 0.005

SMILES: c1ccc(-c2cc(-c3ccc(N4c5ccccc5C5(c6ccccc64)c4ccccc4N(c4ccc(-c6cc(-c7ccccc7)nc(-c7ccccc7)n6)cc4)c4ccccc45)cc3)nc(-c3ccccc3)n2)cc1
photoluminescence quantum yield [1]: 0.73

photoluminescence quantum yield (in ClC(Cl)Cl): 0.76
SMILES: N#Cc1nc(N(Cc2ccc(F)cc2)Cc2ccc(F)cc2)c(C#N)nc1N(Cc1ccc(F)cc1)Cc1ccc(F)cc1

photoluminescence quantum yield (in ClC(Cl)Cl): 0.05
SMILES: COCCN(CCOC)c1ccc(/C=C/c2sc3c4nc(C)sc4ccc3[n+]2C)cc1

SMILES: C#CC1CN2CCC1CC2[C@@H](O)c1ccnc2ccc(OC)cc12 (stereo partly specified)
photoluminescence quantum yield (in C1CCOC1): 0.063
photoluminescence quantum yield (in CC#N): 0.008
photoluminescence quantum yield (in CCCC#N): 0.032
photoluminescence quantum yield (in Cc1ccccc1): 0.023
photoluminescence quantum yield (in ClCCl): 0.033

photoluminescence quantum yield (in C1CCCCC1): 0.42
photoluminescence quantum yield (in CCOC(C)=O): 0.06
SMILES: C#CCNC1=C2C=C(c3cc4n(c3)[B-](F)(F)[N+]3=CC=CC3=C4c3c(C)cc(C)cc3C)C(C)=[N+]2[B-](F)(F)n2c(C)ccc21

SMILES: CC1(C)c2ccccc2N(c2ccc(-c3nc([C@]45CC6CC(C[C@@H](C6)C4)C5)nc([C@]45C[C@H]6C[C@@H](C[C@H](C6)C4)C5)n3)cc2)c2ccccc21
photoluminescence quantum yield (in CC(C)(C)c1ccc(-n2c3ccc([Si](c4ccccc4)(c4ccccc4)c4ccccc4)cc3c3cc([Si](c4ccccc4)(c4ccccc4)c4ccccc4)ccc32)cc1): 0.83

photoluminescence quantum yield (in ClCCl): 0.28
SMILES: O=c1c2ccccc2n(-c2ccc(-c3ccc(-n4c5ccccc5c5ccccc54)cc3)cc2)c2ccccc12

photoluminescence quantum yield (in ClCCl): 0.93
SMILES: c1ccc(N(c2ccccc2)c2ccc(-c3ncnc4ccccc34)cc2)cc1

photoluminescence quantum yield (in ClCCl): 0.55
SMILES: c1ccc(N(c2ccccc2)c2ccc(-c3ccncn3)cc2)cc1

SMILES: COc1ccc(OC)c(C=O)c1
photoluminescence quantum yield (in C1CCOC1): 0.0001
photoluminescence quantum yield (in C1COCCO1): 0.0001
photoluminescence quantum yield (in CC#N): 0.0001
photoluminescence quantum yield (in CC(C)=O): 0.01
photoluminescence quantum yield (in CCCO): 0.31
photoluminescence quantum yield (in CCO): 0.26
photoluminescence quantum yield (in CN(C)C=O): 0.0001
photoluminescence quantum yield (in CN(C)P(=O)(N(C)C)N(C)C): 0.0001
photoluminescence quantum yield (in CNC=O): 0.11
photoluminescence quantum yield (in CO): 0.22
photoluminescence quantum yield (in CS(C)=O): 0.04
photoluminescence quantum yield (in ClC(Cl)Cl): 0.01
photoluminescence quantum yield (in NC=O): 0.48

photoluminescence quantum yield (in ClC(Cl)Cl): 0.961
SMILES: c1ccc2c(-c3ccncc3)c3c(nc2c1)-c1cc2c(cc1CC3)-c1nc3ccccc3c(-c3ccncc3)c1CC2

photoluminescence quantum yield (in ClCCl): 0.00075
SMILES: CCOC(=O)C1=C(C(=O)OCC)C2(c3ccccc3-c3c(Br)cc(Br)cc32)C2(/C=C/c3ccc(Cl)cc3)c3cc(OC)c(OC)cc3CCN12 (stereo unspecified)

SMILES: N#CC(C#N)=Cc1nc2ccc(C#Cc3ccc(N(c4ccccc4)c4ccccc4)cc3)cc2s1
photoluminescence quantum yield (in Cc1ccccc1): 0.07

SMILES: CC(C)(C)c1ccc2c(c1)c1cc(C(C)(C)C)ccc1n2-c1cccc(-c2nc(-c3cccc(-n4c5ccc(C(C)(C)C)cc5c5cc(C(C)(C)C)ccc54)c3)nc(-c3cccc(P(=O)(c4ccccc4)c4ccccc4)c3)n2)c1
photoluminescence quantum yield [1]: 0.55

photoluminescence quantum yield (in ClC(Cl)Cl): 0.23
SMILES: CCCCc1cc(-c2cccc(COC)c2)oc1-c1cccc(-c2cc(CCCC)c(-c3cccc(-c4oc(-c5cccc(-c6oc(-c7cccc(COC)c7)cc6CCCC)c5)cc4CCCC)c3)o2)c1

photoluminescence quantum yield (in ClCCl): 0.38
SMILES: COc1ccc(-c2cnc(/C=C/c3ccc(C#N)cc3)o2)cc1OC

SMILES: F[B-]1(F)n2cccc2C(c2c3ccccc3cc3ccccc23)=C2C=CC=[N+]21
photoluminescence quantum yield (in CCCCCC): 0.135
photoluminescence quantum yield (in Cc1ccccc1): 0.008
photoluminescence quantum yield (in ClCCl): 0.002

SMILES: N#Cc1c(-c2ccc(N(c3ccccc3)c3ccccc3)cc2)c(C#N)c(-c2ccc(N(c3ccccc3)c3ccccc3)cc2)c(C#N)c1-c1ccc(N(c2ccccc2)c2ccccc2)cc1
photoluminescence quantum yield [1]: 1

photoluminescence quantum yield (in CCO): 0.0057
photoluminescence quantum yield (in ClCCl): 0.0137
photoluminescence quantum yield (in O): 0.01
SMILES: Oc1c(-c2ccco2)cccc1-c1nc2ccccc2s1

photoluminescence quantum yield (in CO): 0.67
SMILES: COC(=O)COc1ccc(/C=C/C2=[N+]3C(=C(c4ccc(N(C)C)cc4)c4c(C)cc(C)n4[B-]3(F)F)C(C)=C2)cc1

photoluminescence quantum yield (in CCO): 0.0357
photoluminescence quantum yield (in ClCCl): 0.016
SMILES: N#CC(C#N)=Cc1ccc(-c2ccc(O)c(-c3nc4ccccc4s3)c2)o1
